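Exposure lasted 48 hours, with cells grown in 96-well plates and compounds tested at five concentrations. Here, GI50 denotes the concentration required for 50% inhibition of growth.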 Activity calls are given as the source filed them. Rule as the data show it: active = GI50 up to about 1.1 µM and inactive = higher.
Tests used:
Assay in all cases: NCI tumour cell line growth inhibition, 48 h
[1] = test system: KM12
[2] = test system: SK-MEL-2
[3] = test system: EKVX
[4] = test system: NCI-H23
[5] = test system: SK-MEL-5
[6] = test system: CCRF-CEM
[7] = test system: HOP-62
[8] = test system: OVCAR-4
[9] = test system: SK-OV-3
[10] = test system: HCC 2998
[11] = test system: UACC-62
[12] = test system: MOLT-4
[13] = test system: CAKI-1
[14] = test system: COLO 205
[15] = test system: SF-268
[16] = test system: SNB-19
[17] = test system: LOX IMVI
[18] = test system: A549
[19] = test system: UO-31
[20] = test system: SF-539

Measured: GI50

Cc1cc(NC[C@H](O)[C@H](O)[C@H](O)CO)c(Sc2cc(=O)[nH]c(=O)[nH]2)cc1C
inactive: [1] > 62.5 µM | [2] > 62.5 µM | [3] > 62.5 µM | [4] > 62.5 µM | [5] > 62.5 µM | [6] > 62.5 µM | [7] > 62.5 µM | [8] > 62.5 µM | [9] > 62.5 µM | [10] > 62.5 µM | [11] > 62.5 µM | [12] > 62.5 µM | [13] > 62.5 µM | [14] > 62.5 µM | [15] > 62.5 µM | [16] > 62.5 µM | [17] > 62.5 µM | [18] > 62.5 µM | [19] > 62.5 µM

COC1=CC(O)(CC(N)=O)c2ccccc2C1=O (centres undefined)
inactive: [1] > 100 µM | [2] > 100 µM | [3] > 100 µM | [5] > 100 µM | [6] > 100 µM | [7] > 100 µM | [8] > 100 µM | [9] > 100 µM | [10] > 100 µM | [11] > 100 µM | [12] > 100 µM | [13] > 100 µM | [14] > 100 µM | [15] > 100 µM | [16] > 100 µM | [17] > 100 µM | [18] > 100 µM | [19] > 100 µM

COc1ccc2c(c1O)[C@@]13CCCC=C1[C@@H](C2)N(C)CC3
inactive: [1] > 100 µM | [2] 36.7 µM | [3] > 100 µM | [4] 89.1 µM | [5] 69.2 µM | [6] 27.5 µM | [7] > 100 µM | [8] > 100 µM | [9] > 100 µM | [10] > 100 µM | [11] > 100 µM | [12] 44.3 µM | [13] > 100 µM | [14] 97.1 µM | [15] > 100 µM | [16] > 100 µM | [17] 41.4 µM | [18] > 100 µM | [19] 39 µM

CCOC(=O)c1ccc(C(=O)/C(C#N)=C2\CCCN2C)[nH]1
inactive: [1] > 100 µM | [2] > 100 µM | [3] > 100 µM | [4] > 100 µM | [5] > 100 µM | [6] > 100 µM | [7] > 100 µM | [8] > 100 µM | [10] > 100 µM | [11] > 100 µM | [12] > 100 µM | [13] > 100 µM | [14] > 100 µM | [15] > 100 µM | [16] > 100 µM | [17] > 100 µM | [18] > 100 µM | [19] > 100 µM

O=C1O/C(=C(/c2ccc(Cl)cc2)c2nc3ccccc3[nH]2)C(O)=C1c1ccc(Cl)cc1
inactive: [1] 3.29 µM | [3] 1.46 µM | [4] 1.38 µM | [6] 1.89 µM | [7] 1.8 µM | [8] 2.4 µM | [9] 2.86 µM | [10] 2.83 µM | [11] 2.21 µM | [12] 1.95 µM | [20] 2.65 µM | [13] 2.23 µM | [14] 1.59 µM | [15] 2.46 µM | [16] 2.93 µM | [17] 2.44 µM | [18] 2.4 µM | [19] 2.9 µM

Cc1cc2c(c(/C=N/c3ccc([N+](=O)[O-])cc3)c1)OC1(C=C2)Oc2ccccc2C(=O)N1C (centres undefined)
inactive: [1] 20 µM | [2] 24.8 µM | [3] 13.6 µM | [4] 18.2 µM | [5] 31.8 µM | [6] 12.2 µM | [7] 29.9 µM | [8] 22.2 µM | [9] 22.2 µM | [10] 19.8 µM | [11] 17.2 µM | [12] 4.94 µM | [13] 13.8 µM | [14] 20 µM | [15] 18.7 µM | [16] 34.4 µM | [17] 12.8 µM | [18] 28.2 µM | [19] 13.5 µM

COC(=O)C(C)(Cc1ccc2c(c1)nnn2C(C)=O)NC(C)=O (centres undefined)
inactive: [1] > 100 µM | [2] > 100 µM | [3] > 100 µM | [4] > 100 µM | [5] > 100 µM | [6] > 100 µM | [8] > 100 µM | [9] > 100 µM | [10] > 100 µM | [11] > 100 µM | [12] > 100 µM | [13] > 100 µM | [14] > 100 µM | [15] > 100 µM | [16] > 100 µM | [17] > 100 µM | [18] > 100 µM | [19] > 100 µM

CC(C)(C)c1ccc(O)c(C(O)c2ccccn2)c1 (centres undefined)
inactive: [1] 94 µM | [3] 54.1 µM | [4] 56.1 µM | [6] 38.2 µM | [7] > 100 µM | [10] 34.4 µM | [11] 2.24 µM | [12] 54.2 µM | [20] > 100 µM | [13] > 100 µM | [14] > 100 µM | [15] > 100 µM | [16] > 100 µM | [17] 54.8 µM | [18] 98.2 µM | [19] 39.7 µM

CCCCCCNC(=O)CCC(NC(=O)c1ccc(N(C)Cc2cnc3nc(N)nc(N)c3n2)cc1)C(=O)NCCCCCC (centres undefined)
inactive: [1] > 100 µM | [2] > 100 µM | [3] 37.4 µM | [4] > 100 µM | [5] 7.41 µM | [6] > 100 µM | [7] > 100 µM | [8] > 100 µM | [9] 17.7 µM | [10] > 100 µM | [11] 2.68 µM | [12] > 100 µM | [13] > 100 µM | [14] > 100 µM | [15] > 100 µM | [16] > 100 µM | [17] 12.4 µM | [18] > 100 µM | [19] > 100 µM

CN(C)c1ccc(N=O)c(O)c1.CN(C)c1ccc(N=O)c(O)c1.[SiH4]
inactive: [1] 14.6 µM | [3] 15.3 µM | [4] 10.1 µM | [5] 11.1 µM | [6] 4.35 µM | [7] 23 µM | [8] 12.7 µM | [9] 20.7 µM | [10] 15.4 µM | [11] 8.49 µM | [12] 11.5 µM | [20] 14.2 µM | [13] 8.55 µM | [14] 2.96 µM | [15] 6.98 µM | [16] 17.3 µM | [17] 5.92 µM | [18] 12.4 µM | [19] 16.3 µM

CN(C)Cc1cc(C(=O)/C=C/c2ccccc2Cl)cc(CN(C)C)c1O
inactive: [1] 7.8 µM | [3] 14.7 µM | [4] 14.5 µM | [5] 11.8 µM | [6] 3.4 µM | [7] 8.15 µM | [10] 20.2 µM | [12] 10.9 µM | [20] 15.5 µM | [13] 3.56 µM | [14] 4.23 µM | [15] 15.9 µM | [16] 13.9 µM | [17] 3.33 µM | [18] 14.9 µM | [19] 10.6 µM
